The record followed here is the NIST ThermoML archive (doi:10.1016/j.jct.2014.09.001).

± gives the expanded uncertainty stated by the source.

Series [1] in a line: refractive index (Na D-line) (dimensionless). The settings on record: 298.15 K; 101.33 kPa; Liquid; Standard Abbe refractometry.
For series [2] the following is noted: 298.15 K; 101.33 kPa; Liquid; Vibrating tube method.
Series [3] is described as follows: excess molar enthalpy (molar enthalpy of mixing); xn = mol fraction of the nth substance listed. The conditions noted are these: 298 K, 81.5 kPa, Liquid, Isoperibol calorimetry.

Turning to `CCCCO` [butan-1-ol], the refractive index in series [1] came out at 1.39734 ± 0.00031. Besides, in series [2], the mass density came to 805.79 ± 1 kg/m3.

Turning to `CCC(C)O` (stereo not drawn) [butan-2-ol], the refractive index in series [1] is 1.39551 ± 0.00037. Further, in series [2], the mass density is 802.48 ± 1 kg/m3.

Consider `CCO` [ethanol], for which the refractive index in series [1] is 1.35961 ± 0.00031. In addition, the mass density in series [2] was determined as 784.9 ± 1 kg/m3.

For the compound `O=[N+]([O-])c1ccccc1` [nitrobenzene], the refractive index in series [1] is reported as 1.55004 ± 0.00037. In series [2], the mass density is 1198.12 ± 1.1 kg/m3.

In the case of `O=[N+]([O-])c1ccccc1` [nitrobenzene] + CC(C)O, the excess molar enthalpy in series [3] (x1 = 0.1038) came out at 0.208 ± 0.00263 kcal/mol; in series [3] (x1 = 0.2065), 0.339 ± 0.0043 kcal/mol; in series [3] (x1 = 0.306), 0.42 ± 0.00526 kcal/mol; in series [3] (x1 = 0.3954), 0.466 ± 0.00574 kcal/mol; in series [3] (x1 = 0.4911) it was 0.488 ± 0.00598 kcal/mol; in series [3] (x1 = 0.5906) it was 0.485 ± 0.00598 kcal/mol. The excess molar enthalpy in series [3] (x1 = 0.6999) worked out at 0.451 ± 0.00574 kcal/mol; in series [3] (x1 = 0.8042), 0.381 ± 0.00478 kcal/mol; in series [3] (x1 = 0.8996), 0.264 ± 0.00335 kcal/mol.

Regarding `O=[N+]([O-])c1ccccc1` [nitrobenzene] + CCC(C)O, the excess molar enthalpy in series [3] (x1 = 0.1035) amounted to 0.262 ± 0.00335 kcal/mol; in series [3] (x1 = 0.2049) it was 0.424 ± 0.00526 kcal/mol; in series [3] (x1 = 0.3065), 0.528 ± 0.00669 kcal/mol; in series [3] (x1 = 0.4088), 0.579 ± 0.00717 kcal/mol; in series [3] (x1 = 0.5111) it was 0.592 ± 0.00741 kcal/mol; in series [3] (x1 = 0.6117), 0.568 ± 0.00693 kcal/mol. In addition, the excess molar enthalpy in series [3] (x1 = 0.6988) is 0.534 ± 0.00669 kcal/mol; in series [3] (x1 = 0.7988), 0.448 ± 0.0055 kcal/mol; in series [3] (x1 = 0.8981), 0.292 ± 0.00382 kcal/mol.

`O=[N+]([O-])c1ccccc1` [nitrobenzene] + CCCCO: the excess molar enthalpy is 0.184 ± 0.00239 kcal/mol in series [3] (x1 = 0.1116); 0.31 ± 0.00382 kcal/mol in series [3] (x1 = 0.2145); 0.398 ± 0.00502 kcal/mol in series [3] (x1 = 0.3183); 0.448 ± 0.0055 kcal/mol in series [3] (x1 = 0.4126); 0.464 ± 0.00574 kcal/mol in series [3] (x1 = 0.5133); 0.466 ± 0.00574 kcal/mol in series [3] (x1 = 0.61). For the same compound, the excess molar enthalpy worked out at 0.449 ± 0.0055 kcal/mol in series [3] (x1 = 0.6849), 0.391 ± 0.00502 kcal/mol in series [3] (x1 = 0.7953) and 0.262 ± 0.00335 kcal/mol in series [3] (x1 = 0.8987).

With `O=[N+]([O-])c1ccccc1` [nitrobenzene] + CCCO, the excess molar enthalpy is 0.169 ± 0.00222 kcal/mol in series [3] (x1 = 0.1037); 0.288 ± 0.00359 kcal/mol in series [3] (x1 = 0.2036); 0.364 ± 0.00454 kcal/mol in series [3] (x1 = 0.3063); 0.409 ± 0.00502 kcal/mol in series [3] (x1 = 0.4034); 0.432 ± 0.0055 kcal/mol in series [3] (x1 = 0.4956); 0.432 ± 0.0055 kcal/mol in series [3] (x1 = 0.4993). Moreover, the excess molar enthalpy in series [3] (x1 = 0.593) was 0.43 ± 0.00526 kcal/mol; in series [3] (x1 = 0.6975), 0.408 ± 0.00502 kcal/mol; in series [3] (x1 = 0.7978), 0.351 ± 0.0043 kcal/mol; in series [3] (x1 = 0.9025) it was 0.242 ± 0.00311 kcal/mol.

On to `O=[N+]([O-])c1ccccc1` [nitrobenzene] + CCO, for which the excess molar enthalpy in series [3] (x1 = 0.0997) amounted to 0.112 ± 0.00153 kcal/mol; in series [3] (x1 = 0.1991), 0.201 ± 0.00263 kcal/mol; in series [3] (x1 = 0.2988) it was 0.264 ± 0.00335 kcal/mol; in series [3] (x1 = 0.4003) it was 0.307 ± 0.00382 kcal/mol; in series [3] (x1 = 0.4899) it was 0.342 ± 0.0043 kcal/mol; in series [3] (x1 = 0.5905), 0.355 ± 0.00454 kcal/mol. Further, the values for the excess molar enthalpy in series [3] (x1 = 0.6997), in series [3] (x1 = 0.7999) and in series [3] (x1 = 0.8939) were 0.344 ± 0.0043 kcal/mol, 0.304 ± 0.00382 kcal/mol and 0.222 ± 0.00287 kcal/mol, respectively.

For the compound `CCCO` [propan-1-ol], the refractive index in series [1] is 1.38361 ± 0.00031. The mass density in series [2] amounted to 799.56 ± 1 kg/m3.

Regarding `CC(C)O` [propan-2-ol], the refractive index in series [1] is listed as 1.37518 ± 0.00033. The mass density in series [2] was found to be 780.9 ± 1 kg/m3.
